Data as given in patent US20230017948A1, “COMBINATION THERAPY USING FABP5 INHIBITORS WITH TAXANES FOR TREATMENT OF CANCER” (The Research Foundation for The State University of New York, priority 2019, published 2023).

Key:
[1] = system: PC3 cells implanted subcutaneously; test: Subcutaneous PC3 tumor growth in male BALB/c nude mice; type: in vivo; settings: ip
Experimental: Male BALB/c nude mice (BALB/cOlaHsd-Foxnlnu, 20-30 g, 7-8 weeks old) (Envigo RMS Inc, Indianapolis, Ind.) were used for all experiments. Animals were housed individually at room temperature and were kept on a 12:12-hour light:dark cycle with access to food and water ad libitum. Euthanasia was carried out utilizing CO2 asphyxiation. All of the experiments were approved by the Stony Brook University Animal Care and Use Committee.
Male BALB/c nude mice were subcutaneously inoculated with PC3 cells. Briefly, cells (1×10^6 per mouse) were resuspended in 100 μL of a 1:1 mixture of phosphate-buffered saline (PBS):Matrigel (Corning Inc, Corning, N.Y.) and implanted into a single dorsal lateral flank using a 21G needle. Tumor length (L) and tumor width (W) were measured twice weekly using digital calipers, and tumor volume (V) was calculated as (V═[L×W2]/2). When tumor volume reached approximately 150 to 200 mm3, animals were grouped and drug administration commenced. Humane endpoints for all animals were as follows: animals carrying a tumor burden greater than 35 days, body weight (which was recorded twice weekly) decreasing by greater than 15%, tumor ulceration, paralysis, failure to groom, bleeding, respiratory distress, and/or tumor volume reaching 1500 mm3.
SBFI-102, SBFI-103, and docetaxel were each reconstituted in a 1:1:8 vehicle consisting of dimethyl sulfoxide (DMSO) (Thermo Fisher Scientific, Hampton, N.H.):Cremaphor-EL (Sigma-Aldrich):saline. SBFI-102 and SBFI-103 were administered via intraperitoneal injection (ip) using a 27G needle at 20 mg/kg daily. Docetaxel was administered i.p. at 5 or 10 mg/kg weekly. All drugs were administered in a volume of 10 μL/g body weight.
All data were obtained from at least three independent experiments and then values described in each figure legend depict each independent trial or animal. Data for all in vivo experiments were analyzed using a one-way analysis of variance with the Tukey post hoc test (GraphPad Prism, version 8.0.2). Data are represented as means±SEM and P<0.05 was considered statistically significant. […]

[2] = MTT cytotoxicity assay, RWPE-1 cells (normal prostate cell-line); type: cell-based; settings: human, RWPE-1, MTT, 72-hour incubation
PC3 cells = test: MTT cytotoxicity assay, single drugs and combinations, PC3 cells; type: cell-based; settings: Homo sapiens, PC-3, 72-hour incubation
22Rv1 cells = test: cells; settings: Homo sapiens, 22Rv1, 72 h, read-out: cytotoxicity IC50
DU-145 cells = test: MTT cytotoxicity assay, single drugs and combinations, DU-145 cells; type: cell-based; settings: Homo sapiens; DU-145, MTT, 72-hour incubation
[3] = MTT cytotoxicity assay, WI-38 cells (normal lung cell-line); type: cell-based; settings: human, WI-38, MTT, 72-hour incubation
PCa cell = settings: in vitro and in vivo (Al-Jameel, W. et al. 2017); cited from earlier work
[4] = 20 mg/kg, once daily, from day 15

Compound | tumor growth [1, 4] | IC50 at 72 h [2] | IC50 (PC3 cells) | IC50 (22Rv1 cells) | IC50 (DU-145 cells) | IC50 at 72 h [3] | effect on PCa cell growth, migration, invasion, tumor formation and metastasis (PCa cell) | tumor growth ([1]; docetaxel 10 mg/kg, once weekly)
COc1ccccc1C1[C@H](C(=O)O)[C@H](c2ccccc2OC)[C@H]1C(=O)Oc1cccc2ccccc12 (some centres unmarked) [SBFI-102] | significantly reduced tumor growth | 26 µM | 11.4 µM | 10.1 µM | 8.9 µM | 29.4 µM | – | –
CO[C@H]1C(=O)[C@]2(C)[C@@H](OC)C[C@H]3OC[C@@]3(OC(C)=O)[C@H]2[C@H](OC(=O)c2ccccc2)[C@]2(O)C[C@H](OC(=O)[C@H](O)[C@@H](NC(=O)OC(C)(C)C)c3ccccc3)C(C)=C1C2(C)C [cabazitaxel, reference compound] | – | – | 0.0016 µM | 0.0003 µM | 0.0002 µM | – | – | –
O=C(O)C1[C@H](c2ccccc2)C(C(=O)Oc2cccc3ccccc23)[C@H]1c1ccccc1 (some centres unmarked) [SBFI-26] | – | – | – | – | – | – | suppresses PCa cell growth, migration, invasion, tumor formation, and metastasis | –
CC(=O)O[C@@]12CO[C@@H]1C[C@H](O)[C@@]1(C)C(=O)[C@H](O)C3=C(C)[C@@H](OC(=O)[C@H](O)[C@@H](NC(=O)OC(C)(C)C)c4ccccc4)C[C@@](O)([C@@H](OC(=O)c4ccccc4)[C@H]21)C3(C)C [docetaxel, reference compound] | – | – | 0.0019 µM | 0.0003 µM | 0.0008 µM | – | – | near complete inhibition of growth
COc1ccccc1C1[C@H](C(=O)O)[C@H](c2ccccc2OC)[C@H]1C(=O)OCC1c2ccccc2-c2ccccc21 (some centres unmarked) [SBFI-103] | significantly reduced tumor growth | 20.6 µM | 6.3 µM | 3.1 µM | 3.3 µM | 29.6 µM | – | –
